Experimental data: patent US20120121591A1 (priority 2009, published 2012)
Like-named read-outs stand apart in the source and are kept apart here.

Columns and labels:
Type in all cases: cell-based
hKv1.3 = hKv1.3 (Homo sapiens, UniProt P22001); assay: cell-based; conditions: Kv1.3 (IWQ) IC50 (nM, Avg)
[1] = test system: IFN-g secretion from T cells in human whole blood
[2] = test system: IL-2 secretion from T cells in human whole blood; conditions: read-out: WB (IL-2) IC50 (nM, Avg)
[3] = read-out: WB (IFNg) IC5- (nM, Avg)

hKv1.3, sequence (P22001 whole entry): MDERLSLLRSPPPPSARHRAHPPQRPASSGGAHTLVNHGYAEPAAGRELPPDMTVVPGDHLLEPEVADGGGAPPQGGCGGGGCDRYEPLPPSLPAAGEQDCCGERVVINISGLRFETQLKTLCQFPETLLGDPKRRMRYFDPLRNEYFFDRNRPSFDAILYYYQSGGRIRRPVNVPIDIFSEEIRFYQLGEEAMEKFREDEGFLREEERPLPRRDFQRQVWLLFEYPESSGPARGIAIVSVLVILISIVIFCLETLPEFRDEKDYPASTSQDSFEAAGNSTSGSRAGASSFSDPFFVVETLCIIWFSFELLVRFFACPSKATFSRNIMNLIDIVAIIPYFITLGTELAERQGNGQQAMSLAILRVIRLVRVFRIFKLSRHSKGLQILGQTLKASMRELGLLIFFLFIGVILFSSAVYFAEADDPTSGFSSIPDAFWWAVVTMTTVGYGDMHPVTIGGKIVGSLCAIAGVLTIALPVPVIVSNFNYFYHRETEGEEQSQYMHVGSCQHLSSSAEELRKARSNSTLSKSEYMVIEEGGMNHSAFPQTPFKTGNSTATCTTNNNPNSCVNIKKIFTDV

Structure (SMILES) | IC50 (hKv1.3) | IC50 [1, 3] | IC50 ([1]; read-out: WB (IFNg) IC50 (nM, Avg)) | IC50 [2]
CC[C@H](C)[C@@H]1NC(=O)[C@@H](NC(=O)[C@H](CO)NC(=O)[C@@H](N)CCCNC(=N)N)CSSC[C@@H](C(=O)O)NC(=O)[C@H]([C@@H](C)O)NC(=O)CNC(=O)[C@@H]2CSSC[C@@H]3NC(=O)[C@H](CCC(N)=O)NC(=O)[C@H](Cc4ccccc4)NC(=O)[C@H](C)NC(=O)[C@H]([C@@H](C)O)NC(=O)[C@H](CSSC[C@H](NC(=O)[C@H](Cc4ccccc4)NC(=O)[C@H](CO)NC(=O)[C@H](CC(C)C)NC(=O)[C@H](CCCNC(=N)N)NC(=O)[C@H](Cc4ccc(O)cc4)NC(=O)[C@H](CCCCN)NC(=O)[C@H](CCSC)NC(=O)[C@H](Cc4cccc5ccccc45)NC(=O)[C@H](Cc4cnc[nH]4)NC(=O)[C@H](CCCCN)NC3=O)C(=O)N[C@@H](CCCNC(=N)N)C(=O)N[C@@H](CCCCN)C(=O)N[C@@H]([C@@H](C)O)C(=O)N2)NC(=O)[C@H](CCCNC(=N)N)NC(=O)[C@H](CO)NC(=O)[C@H](CCCCN)NC(=O)[C@@H]2CCCN2C(=O)[C@H]([C@@H](C)CC)NC(=O)[C@H]([C@@H](C)O)NC(=O)[C@H](CC(=O)O)NC1=O [[1-Nal20]ShK] | 2.11 nM |  |  | 
CC[C@H](C)[C@@H]1NC(=O)[C@@H](NC(=O)[C@H](CO)NC(=O)[C@@H](N)CCCNC(=N)N)CSSC[C@@H](C(=O)O)NC(=O)[C@H](Cc2cccc3ccccc23)NC(=O)CNC(=O)[C@@H]2CSSC[C@@H]3NC(=O)[C@H](CCC(N)=O)NC(=O)[C@H](Cc4ccccc4)NC(=O)[C@H](C)NC(=O)[C@H]([C@@H](C)O)NC(=O)[C@H](CSSC[C@H](NC(=O)[C@H](Cc4ccccc4)NC(=O)[C@H](CO)NC(=O)[C@H](CC(C)C)NC(=O)[C@H](CCCNC(=N)N)NC(=O)[C@H](Cc4ccc(O)cc4)NC(=O)[C@H](CCCCN)NC(=O)[C@H](CCSC)NC(=O)[C@H](CO)NC(=O)[C@H](Cc4cnc[nH]4)NC(=O)[C@H](CCCCN)NC3=O)C(=O)N[C@@H](CCCNC(=N)N)C(=O)N[C@@H](CCCCN)C(=O)N[C@@H]([C@@H](C)O)C(=O)N2)NC(=O)[C@H](CCCNC(=N)N)NC(=O)[C@H](CO)NC(=O)[C@H](CCCCN)NC(=O)[C@@H]2CCCN2C(=O)[C@H]([C@@H](C)CC)NC(=O)[C@H]([C@@H](C)O)NC(=O)[C@H](CC(=O)O)NC1=O [[1-Nal34]ShK] | 0.077 nM |  |  | 
CC[C@H](C)[C@@H]1NC(=O)[C@@H](NC(=O)[C@H](CO)NC(=O)[C@@H](N)CCCNC(=N)N)CSSC[C@@H](C(=O)O)NC(=O)[C@H]([C@@H](C)O)NC(=O)CNC(=O)[C@@H]2CSSC[C@@H]3NC(=O)[C@H](CCC(N)=O)NC(=O)[C@H](Cc4ccccc4)NC(=O)[C@H](C)NC(=O)[C@H]([C@@H](C)O)NC(=O)[C@H](CSSC[C@H](NC(=O)[C@H](Cc4ccccc4)NC(=O)[C@H](CO)NC(=O)[C@H](CC(C)C)NC(=O)[C@H](CCCNC(=N)N)NC(=O)[C@H](Cc4ccc(O)cc4)NC(=O)[C@H](CCCNC(=N)N)NC(=O)[C@H](CCSC)NC(=O)[C@H](CO)NC(=O)[C@H](Cc4cnc[nH]4)NC(=O)[C@H](CCCCN)NC3=O)C(=O)N[C@@H](CCCNC(=N)N)C(=O)N[C@@H](CCCCN)C(=O)N[C@@H]([C@@H](C)O)C(=O)N2)NC(=O)[C@H](CCCNC(=N)N)NC(=O)[C@H](CO)NC(=O)[C@H](CCCCN)NC(=O)[C@@H]2CCCN2C(=O)[C@H]([C@@H](C)CC)NC(=O)[C@H]([C@@H](C)O)NC(=O)[C@H](CC(=O)O)NC1=O [[Arg22]ShK] | 18.7 nM |  |  | 
CC[C@H](C)[C@@H]1NC(=O)[C@@H](NC(=O)[C@H](CO)NC(=O)[C@@H](N)CCCNC(=N)N)CSSC[C@@H](C(=O)O)NC(=O)[C@H]([C@@H](C)O)NC(=O)CNC(=O)[C@@H]2CSSC[C@@H]3NC(=O)[C@H](CCC(N)=O)NC(=O)[C@H](Cc4ccccc4)NC(=O)[C@H](C)NC(=O)[C@H]([C@@H](C)O)NC(=O)[C@H](CSSC[C@H](NC(=O)[C@H](Cc4ccccc4)NC(=O)[C@H](CO)NC(=O)[C@H](CC(C)C)NC(=O)[C@H](CCCNC(=N)N)NC(=O)[C@H](CCCNC(=N)N)NC(=O)[C@H](CCCCN)NC(=O)[C@H](CCSC)NC(=O)[C@H](CO)NC(=O)[C@H](Cc4cnc[nH]4)NC(=O)[C@H](CCCCN)NC3=O)C(=O)N[C@@H](CCCNC(=N)N)C(=O)N[C@@H](CCCCN)C(=O)N[C@@H]([C@@H](C)O)C(=O)N2)NC(=O)[C@H](CCCNC(=N)N)NC(=O)[C@H](CO)NC(=O)[C@H](CCCCN)NC(=O)[C@@H]2CCCN2C(=O)[C@H]([C@@H](C)CC)NC(=O)[C@H]([C@@H](C)O)NC(=O)[C@H](CC(=O)O)NC1=O [[Arg23]ShK] | 0.154 nM |  |  | 
CC[C@H](C)[C@@H]1NC(=O)[C@@H](NC(=O)[C@H](CO)NC(=O)[C@@H](N)CCCNC(=N)N)CSSC[C@@H](C(=O)O)NC(=O)[C@H]([C@@H](C)O)NC(=O)CNC(=O)[C@@H]2CSSC[C@@H]3NC(=O)[C@H](CCC(N)=O)NC(=O)[C@H](Cc4ccccc4)NC(=O)[C@H](C)NC(=O)[C@H]([C@@H](C)O)NC(=O)[C@H](CSSC[C@H](NC(=O)[C@H](Cc4ccccc4)NC(=O)[C@H](CO)NC(=O)[C@H](CC(C)C)NC(=O)[C@H](CCCNC(=N)N)NC(=O)[C@H](Cc4ccc(O)cc4)NC(=O)[C@H](CCCCN)NC(=O)[C@H](CCSC)NC(=O)[C@H](CO)NC(=O)[C@H](Cc4c[nH]cn4)NC(=O)[C@H](CCCCN)NC3=O)C(=O)N[C@@H](CCCNC(=N)N)C(=O)N[C@@H](CCCCN)C(=O)N[C@@H]([C@@H](C)O)C(=O)N2)NC(=O)[C@H](CCCNC(=N)N)NC(=O)[C@H](CO)NC(=O)[C@H](CCCCN)NC(=O)[C@H](CCC(=O)O)NC(=O)[C@H]([C@@H](C)CC)NC(=O)[C@H]([C@@H](C)O)NC(=O)[C@H](CC(=O)O)NC1=O [[Glu8]ShK] | 0.097 nM | 0.238 nM |  | 
CC[C@H](C)[C@@H]1NC(=O)[C@@H](NC(=O)[C@H](CO)NC(=O)[C@@H](N)CCCNC(=N)N)CSSC[C@@H](C(=O)O)NC(=O)[C@H](CCC(=O)O)NC(=O)CNC(=O)[C@@H]2CSSC[C@@H]3NC(=O)[C@H](CCC(N)=O)NC(=O)[C@H](Cc4ccccc4)NC(=O)[C@H](C)NC(=O)[C@H]([C@@H](C)O)NC(=O)[C@H](CSSC[C@H](NC(=O)[C@H](Cc4ccccc4)NC(=O)[C@H](CO)NC(=O)[C@H](CC(C)C)NC(=O)[C@H](CCCNC(=N)N)NC(=O)[C@H](Cc4ccc(O)cc4)NC(=O)[C@H](CCCCN)NC(=O)[C@H](CCSC)NC(=O)[C@H](CO)NC(=O)[C@H](Cc4c[nH]cn4)NC(=O)[C@H](CCCCN)NC3=O)C(=O)N[C@@H](CCCNC(=N)N)C(=O)N[C@@H](CCCCN)C(=O)N[C@@H]([C@@H](C)O)C(=O)N2)NC(=O)[C@H](CCCNC(=N)N)NC(=O)[C@H](CO)NC(=O)[C@H](CCCCN)NC(=O)[C@@H]2CCCN2C(=O)[C@H]([C@@H](C)CC)NC(=O)[C@H]([C@@H](C)O)NC(=O)[C@H](CC(=O)O)NC1=O [[Glu34]ShK] | 0.067 nM | 0.123 nM |  | 
CC[C@H](C)[C@@H]1NC(=O)[C@@H](NC(=O)[C@H](CO)NC(=O)[C@@H](N)CCCNC(=N)N)CSSC[C@@H](C(=O)O)NC(=O)[C@H]([C@@H](C)O)NC(=O)CNC(=O)[C@@H]2CSSC[C@@H]3NC(=O)[C@H](CCC(N)=O)NC(=O)[C@H](Cc4ccccc4)NC(=O)[C@H](C)NC(=O)[C@H]([C@@H](C)O)NC(=O)[C@H](CSSC[C@H](NC(=O)[C@H](Cc4ccccc4)NC(=O)[C@H](CO)NC(=O)[C@H](CC(C)C)NC(=O)[C@H](CCCNC(=N)N)NC(=O)[C@H](Cc4ccc(O)cc4)NC(=O)[C@H](CCCCN)NC(=O)[C@H](CCSC)NC(=O)[C@H](CO)NC(=O)[C@H](Cc4cnc[nH]4)NC(=O)[C@H](CCCCN)NC3=O)C(=O)N[C@@H](CCCNC(=N)N)C(=O)N[C@@H](CCCCN)C(=O)N[C@@H]([C@@H](C)O)C(=O)N2)NC(=O)[C@H](CCCNC(=N)N)NC(=O)[C@H](CO)NC(=O)[C@H](CCCCN)NC(=O)[C@@H]2CCCN2C(=O)[C@H]([C@@H](C)CC)NC(=O)[C@H]([C@@H](C)O)NC(=O)[C@H](CCCCN)NC1=O [[Lys5]ShK] | 3.3 nM |  |  | 
CC[C@H](C)[C@@H]1NC(=O)[C@@H](NC(=O)[C@H](CO)NC(=O)[C@@H](N)CCCNC(=N)N)CSSC[C@@H](C(=O)O)NC(=O)[C@H]([C@@H](C)O)NC(=O)CNC(=O)[C@@H]2CSSC[C@@H]3NC(=O)[C@H](CCC(N)=O)NC(=O)[C@H](Cc4ccccc4)NC(=O)[C@H](C)NC(=O)[C@H]([C@@H](C)O)NC(=O)[C@H](CSSC[C@H](NC(=O)[C@H](Cc4ccccc4)NC(=O)[C@H](CO)NC(=O)[C@H](CC(C)C)NC(=O)[C@H](CCCNC(=N)N)NC(=O)[C@H](Cc4ccc(O)cc4)NC(=O)[C@H](CCCCN)NC(=O)[C@H](CCSC)NC(=O)[C@H](CO)NC(=O)[C@H](Cc4c[nH]cn4)NC(=O)[C@H](CCCCN)NC3=O)C(=O)N[C@@H](CCCNC(=N)N)C(=O)N[C@@H](CCCCN)C(=O)N[C@@H]([C@@H](C)O)C(=O)N2)NC(=O)[C@H](CCCNC(=N)N)NC(=O)[C@H](CO)NC(=O)[C@H](CCCCN)NC(=O)[C@@H]2CCCN2C(=O)[C@H]([C@@H](C)CC)NC(=O)[C@H](CCCCN)NC(=O)[C@H](CC(=O)O)NC1=O [[Lys6]ShK] | 0.085 nM |  | 0.21 nM | 
CC[C@H](C)[C@@H]1NC(=O)[C@@H](NC(=O)[C@H](CO)NC(=O)[C@@H](N)CCCNC(=N)N)CSSC[C@@H](C(N)=O)NC(=O)[C@H]([C@@H](C)O)NC(=O)CNC(=O)[C@@H]2CSSC[C@@H]3NC(=O)[C@H](CCCCN)NC(=O)[C@H](Cc4ccccc4)NC(=O)[C@H](C)NC(=O)[C@H]([C@@H](C)O)NC(=O)[C@H](CSSC[C@H](NC(=O)[C@H](Cc4ccccc4)NC(=O)[C@H](CO)NC(=O)[C@H](CC(C)C)NC(=O)[C@H](CCCNC(=N)N)NC(=O)[C@H](Cc4ccc(O)cc4)NC(=O)[C@H](CCCCN)NC(=O)[C@H](CC(N)=O)NC(=O)[C@H](CO)NC(=O)[C@H](Cc4c[nH]cn4)NC(=O)[C@H](CCCCN)NC3=O)C(=O)N[C@@H](CCCNC(=N)N)C(=O)N[C@@H](CCCCN)C(=O)N[C@@H]([C@@H](C)O)C(=O)N2)NC(=O)[C@H](CCCNC(=N)N)NC(=O)[C@H](CO)NC(=O)[C@H](CCCCN)NC(=O)[C@@H]2CCCN2C(=O)[C@H]([C@@H](C)CC)NC(=O)[C@H]([C@@H](C)O)NC(=O)[C@H](CC(=O)O)NC1=O [[Lys16, Asn21]ShK-amide] | 0.167 nM |  |  | 3.24 nM
